Converted amounts (≈) assume the structure as drawn.
Key:
[1] = Permeability in human Caco2/TC7 cells at 5 uM; assay type: ADME, cell-based; conditions: Caco-2, read-out: permeability
KG-1 [2] = assay: Cytotoxicity against human KG-1 cells assessed as reduction in cell viability; assay type: functional, cell-based
[3] = Inhibition of PIM in human KG-1 cells assessed as reduction in PS6 level; assay type: cell-based
[4] = target: Serine/threonine-protein kinase pim-2 (Homo sapiens, UniProt Q9P1W9); assay: Inhibition of PIM2 (unknown origin)
Chain of Serine/threonine-protein kinase pim-2 (Q9P1W9 whole entry): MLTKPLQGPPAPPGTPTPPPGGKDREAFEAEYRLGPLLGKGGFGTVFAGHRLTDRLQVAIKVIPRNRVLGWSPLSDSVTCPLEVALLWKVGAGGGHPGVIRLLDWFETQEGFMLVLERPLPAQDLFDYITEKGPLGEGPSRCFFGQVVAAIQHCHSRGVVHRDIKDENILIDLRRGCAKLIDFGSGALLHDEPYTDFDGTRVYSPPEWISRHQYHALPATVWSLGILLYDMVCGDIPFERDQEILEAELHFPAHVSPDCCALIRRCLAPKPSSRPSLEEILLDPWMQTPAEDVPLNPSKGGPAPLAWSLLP

[5] = Free plasma concentration in human KG-1 tumor bearing mouse at 25 mg/kg, po measured after 8 hrs; assay type: ADME, organism-based; conditions: in vivo
[6] = Toxicity in mouse xenografted with human KG-1 cells assessed as reduction in body weight at 50 to 150 mg/kg, po administered bid for 3 weeks; assay type: organism-based; design: scale not given: the % may be the effect or the level left; conditions: in vivo, 504 h, dose 50-150 mg/kg
[7] = Clearance in rat at 3 mg/kg, iv; assay type: ADME, organism-based; conditions: in vivo
KG-1 [8] = assay: Antitumor against human KG-1 cells xenografted in mouse assessed as tumor volume at 150 mg/kg, po administered BID for 3 weeks relative to control; assay type: functional
[9] = target: Voltage-gated inwardly rectifying potassium channel KCNH2 (Homo sapiens, UniProt Q12809); assay: Inhibition of human ERG by patch clamp assay
Chain of Voltage-gated inwardly rectifying potassium channel KCNH2 (Q12809 whole entry): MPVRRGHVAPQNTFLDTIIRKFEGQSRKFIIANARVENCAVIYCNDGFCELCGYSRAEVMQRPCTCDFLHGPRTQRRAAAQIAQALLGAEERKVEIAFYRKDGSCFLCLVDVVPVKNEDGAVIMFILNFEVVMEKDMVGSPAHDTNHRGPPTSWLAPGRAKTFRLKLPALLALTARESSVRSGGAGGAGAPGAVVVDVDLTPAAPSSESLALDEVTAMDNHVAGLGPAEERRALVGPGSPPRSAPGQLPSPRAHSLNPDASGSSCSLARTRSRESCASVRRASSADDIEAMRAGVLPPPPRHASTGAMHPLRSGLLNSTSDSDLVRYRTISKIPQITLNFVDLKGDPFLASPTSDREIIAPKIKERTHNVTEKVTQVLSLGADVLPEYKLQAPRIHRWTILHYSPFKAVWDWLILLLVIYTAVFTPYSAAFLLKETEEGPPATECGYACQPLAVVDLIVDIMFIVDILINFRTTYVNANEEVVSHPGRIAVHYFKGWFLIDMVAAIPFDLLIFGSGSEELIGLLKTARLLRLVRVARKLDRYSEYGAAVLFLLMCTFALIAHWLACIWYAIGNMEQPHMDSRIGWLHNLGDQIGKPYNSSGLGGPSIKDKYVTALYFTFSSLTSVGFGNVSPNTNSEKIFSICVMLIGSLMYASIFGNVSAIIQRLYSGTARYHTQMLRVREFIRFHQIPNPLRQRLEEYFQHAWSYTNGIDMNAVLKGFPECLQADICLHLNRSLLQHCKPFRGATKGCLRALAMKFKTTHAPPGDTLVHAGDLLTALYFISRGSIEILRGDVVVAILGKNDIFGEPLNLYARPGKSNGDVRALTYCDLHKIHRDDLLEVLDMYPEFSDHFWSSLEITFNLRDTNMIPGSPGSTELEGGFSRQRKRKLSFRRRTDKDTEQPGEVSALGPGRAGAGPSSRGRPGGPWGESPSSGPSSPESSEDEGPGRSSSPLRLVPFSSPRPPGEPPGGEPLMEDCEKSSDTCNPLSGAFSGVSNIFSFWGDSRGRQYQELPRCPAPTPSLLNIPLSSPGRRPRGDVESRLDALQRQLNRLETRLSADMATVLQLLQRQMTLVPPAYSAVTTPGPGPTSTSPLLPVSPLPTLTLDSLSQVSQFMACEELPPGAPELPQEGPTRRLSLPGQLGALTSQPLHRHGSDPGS

[10] = Half life in rat at 3 mg/kg, iv; assay type: ADME, organism-based; conditions: in vivo
KG-1 [11] = assay: Antitumor against human KG-1 cells xenografted in mouse assessed as tumor volume at 50 mg/kg, po administered BID for 3 weeks relative to control; assay type: functional
[12] = Free tumor concentration in human KG-1 tumor bearing mouse at 25 mg/kg, po measured after 24 hrs; assay type: ADME, organism-based, Neoplasm; conditions: in vivo
[13] = Oral bioavailability in rat at 10 mg/kg; assay type: ADME, organism-based; conditions: in vivo
[14] = Volume of distribution at steady state in rat at 3 mg/kg, iv; assay type: ADME, organism-based; conditions: in vivo, read-out: Vdss
KG-1 [15] = assay: Antitumor activity against human KG-1 tumor bearing mouse assessed as reduction BAD phosphorylation at 25 mg/kg, po measured after 8 hrs; assay type: functional; conditions: KG-1, po
KG-1 [16] = assay: Antitumor against human KG-1 cells xenografted in mouse assessed as tumor growth inhibition at 150 mg/kg, po administered BID for 3 weeks; assay type: functional; conditions: KG-1, po, 504 h, read-out: TGI
[17] = Free plasma concentration in human KG-1 tumor bearing mouse at 25 mg/kg, po measured after 24 hrs; assay type: ADME, organism-based; conditions: in vivo
[18] = Unbound fraction in human KG-1 tumor bearing mouse plasma at 25 mg/kg, po; assay type: ADME, organism-based
[19] = Cmax in rat at 3 mg/kg, iv; assay type: ADME, organism-based; design: route intravenous, dose 3 mg/kg; conditions: in vivo
KG-1 [20] = assay: Antitumor against human KG-1 cells xenografted in mouse assessed as tumor volume at 100 mg/kg, po administered BID for 3 weeks relative to control; assay type: functional
[21] = Free tumor concentration in human KG-1 tumor bearing mouse at 25 mg/kg, po measured after 8 hrs; assay type: ADME, organism-based, Neoplasm; conditions: in vivo
KG-1 [22] = assay: Antitumor activity against human KG-1 tumor bearing mouse assessed as reduction BAD phosphorylation at 25 mg/kg, po measured after 24 hrs; assay type: functional; conditions: KG-1, po
[23] = Thermodynamic solubility in pH 7.4 buffer; assay type: physicochemical; conditions: read-out: Therm_solubility

Row | Papp at 5 µM [1] | EC50 [3] | IC50 [4] | Compound | EC50 (KG-1 [2]) | other results
1 | 12 ×10⁻⁶ cm/s | 24 nM | – | Cc1cn([C@H](C)[C@@H]2CCNC[C@H]2F)c2nc(C(N)=O)cc(Cl)c12 (racemic) | 20 nM | –
2 | 1.7 ×10⁻⁶ cm/s | 115 nM | – | Cc1cn([C@@H](C)[C@@H]2CCNC[C@@H]2F)c2nc(C(N)=O)cc(Cl)c12 (racemic) | 195 nM | –
3 | 7.1 ×10⁻⁶ cm/s | 52 nM | – | Cc1cn([C@H](C)[C@H]2CCNC[C@@H]2F)c2nc(C(N)=O)cc(Cl)c12 (racemic) | 51 nM | –
4 | 1.5 ×10⁻⁶ cm/s | 6 nM | – | Cc1cn([C@@H](C)[C@H]2CCNC[C@H]2F)c2nc(C(N)=O)cc(Cl)c12 (racemic) | 17 nM | –
5 | – | – | 1780 nM | Cc1cn([C@H](C)[C@@]2(F)CCNC2)c2nc(C(N)=O)cc(Cl)c12 (stereo in doubt) | 7230 nM | –
6 | 2.3 ×10⁻⁶ cm/s | 71 nM | 6 nM | Cc1cn([C@@H](C)[C@]2(F)CCNC2)c2nc(C(N)=O)cc(Cl)c12 (stereo in doubt) | 61 nM | Cp(f) [5]: 240 nM; Activity [6]: > 15%; clearance [7]: 75 mL/min/kg; T/C (KG-1 [8]): 13.1%; IC50 [9]: 22000 nM; half-life [10]: 2.7 h; T/C (KG-1 [11]): 56.1%; Drug uptake(free) [12]: 120 nM; bioavailability [13]: 59%; Vd [14]: 9.9 L/kg; inhibition in vivo at 25 mg/kg (KG-1 [15]): 65%; inhibition in vivo at 150 mg/kg (KG-1 [16]): 87%; Cp(f) [17]: 54 nM; fraction unbound [18]: 0.055; Cmax [19]: 174 ng/mL; T/C (KG-1 [20]): 50.7%; Drug uptake(free) [21]: 720 nM; inhibition in vivo at 25 mg/kg (KG-1 [22]): 55%; solubility thermodynamic [23]: 6.8 mM (≈ 2210 µg/mL)
7 | 1.8 ×10⁻⁶ cm/s | 2030 nM | 515 nM | Cc1cn([C@H](C)[C@]2(F)CCNC2)c2nc(C(N)=O)cc(Cl)c12 (stereo in doubt) | 9070 nM | IC50 [9]: 30000 nM
8 | – | 876 nM | 160 nM | Cc1cn([C@@H](C)[C@@]2(F)CCNC2)c2nc(C(N)=O)cc(Cl)c12 (stereo in doubt) | 808 nM | –

Reference: ChEMBL document CHEMBL4699590, “Discovery of SARxxxx92, a pan-PIM kinase inhibitor, efficacious in a KG1 tumor model” (Bioorg Med Chem Lett, 2020)
